Patent US9288991B2 (Rohm and Haas Company, priority 2012, dated 2016)

Key:
[1] = test system: Stichococcus bacillaris SAG 379-1a / CCAP 379/1a; experiment: Algal efficacy testing of dry paint film (modified ASTM 5589), Stichococcus; assay type: cell-based
Description: (§1) These paints were then diluted with an antimicrobial free acrylic/silicone based paint and mixed to prepare targeted concentrations of antimicrobial compounds for the testing. The total biocides concentrations tested were 125, 250, 500, 1000, 2000 and 5000 ppm. After biocides addition or dilution, the paints were mixed 90 seconds with the horse power shaker (AXEL 75M3372/Agitateur SO-10MI) until uniformity was achieved. Paints containing different antimicrobial compounds at the same levels were mixed together in order to obtain the desired ratio of antimicrobial compounds. After one day, the paints were applied to Schleicher & Schuell filter paper at 280 μm wet film thickness and dried for 3 days at room temperature avoiding direct exposure to sunlight. Square discs (1.6 cm×1.6 cm) were cut out from each panel and were used as the substrate for algal efficacy tests. This sample size allowed for an agar border when the sample disc was placed into the well of the test plate.
(§2) Algal efficacy was tested according to modified ASTM 5589 which is a standard accelerated test method for determining resistance of various coatings (including paints) to algal defacement. To accommodate for high-throughput screening, this method was scaled down from petri dishes to 6-well plates. Bold Modified Basal Freshwater Nutrient Solution was used as growth medium. A single coated filter paper coupon was placed with a pair of sterile forceps at the center of the agar plug (on top) with the painted surface facing upwards. Algal inoculums were prepared by mixing equal concentrations (1×10^6 cfu/ml) and equal volumes of exponentially growing algae cultures.
(§3) Each well that contains a tested coupon was inoculated with 1750 μl of algal suspensions (1×10^6 cfu/ml) making sure that the whole surface (paint film as well as the agar surrounding it) was evenly covered. […]
(§4) At the end of the three week incubation period, the samples were scored for percent inhibition regarding visible algal growth compared to the blank sample (0% inhibition).
(§5) The SI is calculated based on F. C. […]

Chlorella sp. ATCC 7516 = experiment: Algal efficacy testing of dry paint film (modified ASTM 5589), Chlorella; assay type: cell-based
Description: as §1, §2, §3, §4, §5

[2] = total active in paint, 3 weeks incubation, maximum tested conc given if pass not reached

Compound	inhibition at 5000 ppm ([1]; Stichococcus bacillaris, 504 h, total conc 5000 ppm, 3 weeks, visible algal growth vs blank)	inhibition at 5000 ppm (Chlorella sp. ATCC 7516; 504 h, total conc 5000 ppm, 3 weeks, visible algal growth vs blank)	Total conc (minimum inhibitory concentration chosen for SI; pass level ≧75% inhibition) [1, 2]	% inhibition ([1]; total conc 500 ppm, 3 weeks, visible algal growth vs blank)	Total conc (minimum inhibitory concentration chosen for SI; pass level ≧75% inhibition) (Chlorella sp. ATCC 7516; [2])	% inhibition (Chlorella sp. ATCC 7516; total conc 1000 ppm, 3 weeks, visible algal growth vs blank)
O=c1[nH]c2c(c(=O)n1C1CCCCC1)CCC2 [Lenacil, 3-cyclohexyl-1,5,6,7-tetrahydrocyclopentapyrimidine-2,4(3H)-dione]	70%	30%	–	–	–	–
[O-][n+]1ccccc1[S][Zn][S]c1cccc[n+]1[O-] [ZnPT, bis(2-pyridylthio)zinc 1,1′-dioxide]	–	–	500 ppm	75%	1000 ppm	100%
